Reference: patent US9005575B2, “Arg-Gly-Asp-conjugated alpha-melanocyte stimulating hormone hybrid peptide for use in diagnosing and treating melanoma, including metastatic melanoma and methods related to same” (STC.UNM, priority 2009, dated 2015)
Like-named read-outs stand apart in the source and are kept apart here. Positions of bridges follow the written chain, without caps; N, C: chain ends. Non-standard residues stand in square brackets, D forms with d. Residues, ends and D or L forms follow the SMILES beside them.

Assays:
[1] = test system: B16/F1 melanoma cells; assay: Clonogenic cytotoxicity; type: cell-based, murine; settings: 6 days post the treatment; for Decrease in clonogenic survival compared to untreated group: 0.1 μM (100 nM), 3 h incubation
Procedure: To determine whether the replacement of the Lys linker with Arg linker affected the clonogenic cytotoxicity of the hybrid peptide, we examined the clonogenic cytotoxic effect of RGD-Arg-(Arg^11)CCMSH in B16/F1 melanoma cells according to our published procedure (17). The B16/F1 cells were seeded in a 6-well plate (200 cells/well) and incubated at 37° C. overnight. […] Control cells were only incubated in the culture medium. After the incubation, the cells were washed with PBS twice and allowed to form colonies over 6 days in the culture medium. The medium was changed every other day. After 6 days, the cells were fixed with methanol:glacial acetic acid (3:1), stained with hematoxylin and visually examined under microscope for survival. Colonies contained more than 50 cells were scored as survivors.

[2] = molecular target: T1, MC1 receptor (Mus musculus, UniProt Q01727); settings: literature value (ref. 8); read-out: MC1 receptor binding affinity; cited from earlier work
T1 construct: host or cells: B16/F1 murine melanoma cells

[3] = test system: B16/F1 murine melanoma cells; assay: Specificity of cellular uptake (peptide blockade); type: cell-based; settings: 0.1 μM of blocking peptide, 25° C., 120 min
Procedure: The specificity of cell binding was determined by incubating ^99mTc-RGD-Lys-(Arg^11)CCMSH with or without non-radioactive peptides. After being washed once with binding media, B16/F1 cells in 24-well cell culture plates were incubated with approximately 200,000 cpm of HPLC purified ^99mTc-RGD-Lys-(Arg^11)CCMSH at 25° C. for 120 min (n=4) in the presence of 0.1 μM of RGD-Lys-(Arg^11)CCMSH, NDP-MSH, (Arg^11)CCMSH or RGD in 0.5 ml of binding media, respectively. The reaction media were aspirated after the incubation. The cells were rinsed twice with 0.5 ml of ice-cold pH 7.4, 0.2% BSA/0.01 M PBS and lysed in 0.5 ml of 1 N NaOH for 5 min. The activities associated with cells were measured in a gamma counter. Statistical analysis was performed using the Student's t-test for unpaired data.
The specificity of cellular uptake was determined by incubating ^99mTc-RGD-Arg-(Arg^11)CCMSH with or without non-radioactive peptides. After being washed once with binding medium, B16/F1 cells in 24-well cell culture plates were incubated with approximately 200,000 cpm of HPLC purified ^99mTc-RGD-Arg-(Arg^11)CCMSH at 25° C. for 120 min (n=3) in the presence of 0.1 μM of RGD-Arg-(Arg^11)CCMSH, (Arg^11)CCMSH, RGD or no peptide blockade in 0.5 mL of binding medium, respectively. The reaction medium was aspirated after the incubation. The cells were rinsed twice with 0.5 mL of ice-cold pH 7.4, 0.2% BSA/0.01 M PBS and lysed in 0.5 mL of 1 N NaOH for 5 min. The activities associated with cells were measured in a gamma counter.

[4] = molecular target: T1, MC1 receptor; assay: In vitro competitive binding assay in B16/F1 melanoma cells; parameters: species or system murine; settings: competition with ^125I-(Tyr^2)-NDP-MSH, 25° C., 2 h, read-out: IC50 value (MC1 receptor binding affinity)
Procedure: The IC50 value of RGD-Lys-(Arg^11)CCMSH was determined according to our previously published procedure (27). B16/F1 cells were harvested and seeded into a 24-well cell culture plate (5×10^5/well) and incubated at 37° C. overnight. After being washed with binding media (MEM with 25 mM HEPES, pH 7.4, 0.2% BSA, 0.3 mM 1,10-phenathroline), the cells were incubated at room temperature (25° C.) for 2 h with approximately 40,000 counts per minute (cpm) of ^125I-(Tyr^2)-NDP-MSH in the presence of increasing concentrations (10^−12 to 10^−5 M) of RGD-Lys-(Arg^11)CCMSH in 0.3 ml of binding media. The reaction media were aspirated after the incubation. […] The activities associated with cells were measured in a Wallac 1480 automated gamma counter (PerkinElmer, NJ). The IC50 value for the peptide was calculated by fitting the data with nonlinear regression using Prism software (GraphPad Software, La Jolla, Calif.).
The IC50 value of RGD-Arg-(Arg^11)CCMSH was determined according to our previously published procedure (17). […] The activities associated with cells were measured in a Wallac 1480 automated gamma counter (PerkinElmer, NJ). The IC50 value for the peptide was calculated using Prism software (GraphPad Software, La Jolla, Calif.).

T1 sequence (Q01727 whole entry): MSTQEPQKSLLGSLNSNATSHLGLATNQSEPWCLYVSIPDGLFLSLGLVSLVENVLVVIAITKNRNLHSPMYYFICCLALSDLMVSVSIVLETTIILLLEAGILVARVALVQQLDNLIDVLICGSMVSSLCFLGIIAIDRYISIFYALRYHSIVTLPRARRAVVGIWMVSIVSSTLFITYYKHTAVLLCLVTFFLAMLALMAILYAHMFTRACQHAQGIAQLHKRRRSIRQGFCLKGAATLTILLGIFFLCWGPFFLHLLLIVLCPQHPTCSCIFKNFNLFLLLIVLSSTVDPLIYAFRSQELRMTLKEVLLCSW

Compound | Decrease in clonogenic survival compared to untreated group [1] | IC50 [2] | Decrease of cellular uptake of ^99mTc-RGD-Arg-(Arg^11)CCMSH by peptide blockade [3] | Decrease of cellular uptake of ^99mTc-RGD-Lys-(Arg^11)CCMSH by peptide blockade [3] | IC50 [4] | Decrease of clonogenic survival compared to untreated control ([1]; 93 μmol, single treatment (3 h incubation), unpublished preliminary studies)
[Cys^3,4,10, D-Phe^7, Arg^11]α-MSH3-13 [(Arg^11)CCMSH, reference compound] | 11% | 1.7 nM | 78% |  |  | 
Cyclo(Arg-Gly-Asp-DPhe-Val) [RGD, reference compound] | 7% |  | didn't reduce | didn't reduce |  | 
CC(C)[C@H](NC(=O)[C@@H]1CCCN1C(=O)[C@H](CCCNC(=N)N)NC(=O)[C@H](CS)NC(=O)[C@H](Cc1c[nH]c2ccccc12)NC(=O)[C@H](CCCNC(=N)N)NC(=O)[C@@H](Cc1ccccc1)NC(=O)[C@H](Cc1c[nH]cn1)NC(=O)[C@H](CCC(=O)O)NC(=O)[C@H](CS)NC(=O)[C@H](CS)NC(=O)[C@H](CCCNC(=N)N)NC(=O)[C@@H]1CC(=O)N[C@@H](CCCNC(=N)N)C(=O)NCC(=O)N[C@@H](CC(=O)O)C(=O)N[C@H](Cc2ccc(O)cc2)C(=O)N1)C(N)=O [RGD-Arg-(Arg^11)CCMSH] (RGD[dY]DRCCEH[dF]RWCRPV-NH2; lactam N-5; C-terminus assumed) | 62% |  | 76% |  | 0.7 nM | 
CC(C)[C@H](NC(=O)[C@@H]1CCCN1C(=O)[C@H](CCCNC(=N)N)NC(=O)[C@H](CS)NC(=O)[C@H](Cc1c[nH]c2ccccc12)NC(=O)[C@H](CCCNC(=N)N)NC(=O)[C@@H](Cc1ccccc1)NC(=O)[C@H](Cc1c[nH]cn1)NC(=O)[C@H](CCC(=O)O)NC(=O)[C@H](CS)NC(=O)[C@H](CS)NC(=O)[C@H](CCCCN)NC(=O)[C@@H]1CC(=O)N[C@@H](CCCNC(=N)N)C(=O)NCC(=O)N[C@@H](CC(=O)O)C(=O)N[C@H](Cc2ccc(O)cc2)C(=O)N1)C(N)=O [RGD-Lys-(Arg^11)CCMSH] (RGD[dY]DKCCEH[dF]RWCRPV-NH2; lactam N-5; C-terminus assumed) |  |  |  |  |  | 65%
